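Method: 48-hour compound exposure of cells in 96-well plates, five concentrations, linear interpolation of endpoints. At the GI50, growth is halved.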 Active and inactive are the calls of the source. Cut-off read from the data, not from the text of the source: active = GI50 up to about 1.1 µM and inactive = higher.
Assays:
Assay in all cases: growth of human tumour cells (NCI), 48 h
UO-31 = system: UO-31
NCI-H460 = system: NCI-H460
OVCAR-8 = system: OVCAR-8
HOP-92 = system: HOP-92
NCI/ADR-RES = system: NCI/ADR-RES
SK-MEL-2 = system: SK-MEL-2
SF-295 = system: SF-295
HL-60 = system: HL-60
CAKI-1 = system: CAKI-1
DU-145 = system: DU-145
T47D = system: T47D
A498 = system: A498
MCF7 = system: MCF7
COLO 205 = system: COLO 205
K562 = system: K562
UACC-62 = system: UACC-62
NCI-H226 = system: NCI-H226
LOX IMVI = system: LOX IMVI
OVCAR-5 = system: OVCAR-5
TK-10 = system: TK-10
SW-620 = system: SW-620
NCI-H23 = system: NCI-H23
UACC-257 = system: UACC-257
OVCAR-3 = system: OVCAR-3
SF-268 = system: SF-268
HOP-62 = system: HOP-62
M14 = system: M14
ACHN = system: ACHN
SK-MEL-28 = system: SK-MEL-28
U-251 = system: U-251
SN12C = system: SN12C
786-0 = system: 786-0
A549 = system: A549
OVCAR-4 = system: OVCAR-4
CCRF-CEM = system: CCRF-CEM
HCT-15 = system: HCT-15
NCI-H522 = system: NCI-H522
KM12 = system: KM12
EKVX = system: EKVX
HCT-116 = system: HCT-116
PC-3 = system: PC-3
IGROV-1 = system: IGROV-1
SK-MEL-5 = system: SK-MEL-5
MDA-MB-231 = system: MDA-MB-231
HT-29 = system: HT-29
MDA-N = system: MDA-N
MOLT-4 = system: MOLT-4
RPMI-8226 = system: RPMI-8226
BT-549 = system: BT-549
Hs-578T = system: Hs-578T
SNB-19 = system: SNB-19
MDA-MB-435 = system: MDA-MB-435

**Q.** Which results are given for COc1cc(NS(C)(=O)=O)ccc1N1Cc2c[nH]c3ccc4nccc1c4c23?
**A.** GI50 (UO-31): > 100 µM (inactive); GI50 (NCI-H460): 18.5 µM (inactive); GI50 (OVCAR-8): 35.1 µM (inactive); GI50 (HOP-92): 26.1 µM (inactive); GI50 (NCI/ADR-RES): > 100 µM (inactive); GI50 (SK-MEL-2): 21.6 µM (inactive); GI50 (SF-295): 41.5 µM (inactive); GI50 (HL-60): 23.6 µM (inactive); GI50 (CAKI-1): > 100 µM (inactive); GI50 (DU-145): 42.5 µM (inactive); GI50 (T47D): 25.5 µM (inactive); GI50 (A498): 38.5 µM (inactive); GI50 (MCF7): 36.6 µM (inactive); GI50 (COLO 205): 26.7 µM (inactive); GI50 (K562): 22.5 µM (inactive); GI50 (UACC-62): 67.8 µM (inactive); GI50 (NCI-H226): 29 µM (inactive); GI50 (LOX IMVI): 18.2 µM (inactive); GI50 (OVCAR-5): 30 µM (inactive); GI50 (TK-10): 39.8 µM (inactive); GI50 (SW-620): 32.1 µM (inactive); GI50 (NCI-H23): 39.1 µM (inactive); GI50 (UACC-257): 37.2 µM (inactive); GI50 (OVCAR-3): 33.7 µM (inactive); GI50 (SF-268): 19.1 µM (inactive); GI50 (HOP-62): 54.2 µM (inactive); GI50 (M14): 42.4 µM (inactive); GI50 (ACHN): > 100 µM (inactive); GI50 (SK-MEL-28): 36 µM (inactive); GI50 (U-251): 36.5 µM (inactive); GI50 (SN12C): 20.2 µM (inactive); GI50 (786-0): 30.8 µM (inactive); GI50 (A549): > 100 µM (inactive); GI50 (OVCAR-4): 61.2 µM (inactive); GI50 (CCRF-CEM): 25.5 µM (inactive); GI50 (HCT-15): > 100 µM; GI50 (NCI-H522): 15.5 µM (inactive); GI50 (KM12): 34.4 µM (inactive); GI50 (EKVX): > 100 µM (inactive); GI50 (HCT-116): 26.6 µM (inactive); GI50 (PC-3): 29.6 µM (inactive); GI50 (IGROV-1): 36.3 µM (inactive); GI50 (SK-MEL-5): 23.4 µM (inactive); GI50 (MDA-MB-231): 24.9 µM (inactive); GI50 (HT-29): 30.8 µM (inactive); GI50 (MDA-N): 28.7 µM (inactive); GI50 (MOLT-4): 22.3 µM (inactive); GI50 (RPMI-8226): 17.5 µM (inactive); GI50 (BT-549): 42.9 µM (inactive); GI50 (Hs-578T): 31.1 µM (inactive); GI50 (SNB-19): 34.7 µM (inactive); GI50 (MDA-MB-435): 34.4 µM (inactive)

From ChEMBL document CHEMBL1201862, “PubChem BioAssay data set” (2004)
